Measured values taken from patent US12303490B2, “Compositions and methods for suppressing and/or treating neurodegenerative diseases and/or a clinical condition thereof” (CK Regeon Inc., priority 2019, dated 2025).

Key:
CXXC5-DVL interaction = assay: In vitro CXXC5-DVL PPI inhibition (binding) assay, library screening; settings: compound 30 μM; FITC-tagged PTD-DBMP and DVL-PDZ domain; fluorescence intensity
Description: Screening for compounds that inhibit the CXXC5-DVL interaction. […] CELL. DEATH. DIFFER. […] Briefly, 5 mg/ml purified DVL-PDZ domain was incubated in each well of a 96-well Maxibinding Immunoplate (SPL, Seoul, Korea) at 4° C. for 16 h. After the addition of 10 μM FITC-tagged PTD-DBMP to each well, each compound in the chemical library or control (DMSO) was treated to the well at a final concentration of 30 μM. The fluorescence intensity was measured using a Fluorstar Optima microplate reader (BGM Lab Technologie, Ortenberg, Germany) and normalized as follows: “(‘compounds-treated group’−‘blank’)/(‘DMSO-treated control’−‘blank’)*100”.

Wnt/β-catenin pathway = assay: pTOPFlash reporter assay in HEK293 cells; settings: HEK293 cells harboring the pTOPFlash reporter
[1] = test system: β-catenin, CXXC5 and p-GSK3β (S9) in H4/SWE cells; assay: Western blot assay in H4/SWE cells; type: cell-based; settings: FIG. 9A
Description: Western blot assay. H4 and H4/SWE Cells were ground with a mortar and pestle before lysis in RIPA buffer (150 mM NaCl, 10 mM Tris, pH 7.2, 0.1% SDS, 1.0% Triton X-100, 1% sodium deoxycholate, and 5 mM EDTA). Samples were separated on 6-12% SDS polyacrylamide gels and transferred onto PROTRAN nitrocellulose membranes (Schleicher and Schuell Co.). The membranes were blocked with PBS containing 5% non-fat dry skim milk and 0.07% (vol/vol) Tween 20 and incubated with antibody specific for β-catenin (1:1,000, Santa Cruz Biotechnology, Inc.), CXXC5 (1:500, Santa Cruz Biotechnology, Inc.), p-GSK3β(S9) (1:500, Santa Cruz Biotechnology, Inc.). The membranes were then incubated with horseradish peroxidase-conjugated anti-rabbit (1:5,000, Bio-Rad Laboratories) or anti-mouse (1:5000, Cell Signaling Technology) IgG secondary antibody. Protein bands were visualized with enhanced chemiluminescence (GE Healthcare) using a luminescent image analyzer, LAS-3000 (Fujifilm). Western blot bands were analyzed using Multi-Gauge V3.0 software (Fujifilm).

serum active GLP-1 [2] = assay: Serum active GLP-1 in NASH mouse models (STZ-induced, MCD-induced); type: in vivo, mice; settings: FIG. 6A-6B
Description: FIG. 6A. Graph illustrating the serum active GLP-1 levels in NCD-mice (“Chow”) and RFD-fed, STZ-induced NASH mice that were treated with vehicle, A3334, A3051, selonsertib, and ocaliva.
FIG. 6B. Graph illustrating the serum active GLP-1 levels in NCD-mice (“Chow”) and RFD-fed, methionine-choline deficient diet (MCD)-induced NASH mice that were treated with vehicle, A3334, A3051, selonsertib, ocaliva (“OCA”), and A3486.
(§1) Blood chemistry. Total blood of mice was collected by cardiac puncture. The blood was allowed to clot for 30 min and was then centrifuged for 30 min at 3,000×g to obtain supernatant to measure active GLP-1 concentration. ELISA assay kits were used to assess serum active GLP-1 (7-36).

[3] = test system: secreted human amyloid β-42 in H4/SWE cells; assay: Human Aβ42 ELISA assay in H4/SWE cells; type: cell-based; settings: 24 h, FIG. 10
Description: Human Aβ42 ELISA assay. H4 or H4/SWE cells were cultured in Dulbecco's Modified Eagle's Medium (DMEM, Gibco) containing 10% fetal bovine serum (FBS) and grown to confluence in a 5% CO2 and 95% air humidified atmosphere. The cells were seeded in 6-well plate in DMEM supplemented with 10% FBS and allowed to adhere overnight. The cells were treated with each compound (1˜20 uM) for 24 h and collected in 1 ml of medium. The samples were treated with protease inhibitor cocktail (PIC) to avoid the degradation of Amyloid β by protease and centrifuged at 3000 rpm for 3 min. Experiments were performed according to the guidance of Human Aβ42 ELISA Kit protocol (Invitrogen). The amount of secreted Amyloid β was normalized by measuring total protein concentration.

[4] = test system: rat neuronal stem cells (NSCs); assay: Neural stem cell (NSC) differentiation, cell morphology; type: cell-based; settings: 0, 1, 5 and 10 μM; 24 hours; medium with bFGF
Description: Neural stem cell (NSCs) culture. NSCs were extracted from the forebrain of E14.5 rats and maintained in an undifferentiated state by culturing in medium containing 10 ng/ml of bFGF (Peprotech). Undifferentiated NSCs (1×10^5) were treated with of each compound (10 μM) and cell morphology was assessed by capturing black and white images of the cells after 24 h.
Referring now to FIG. 7A-7B, NSCs were isolated form E14 mice embryos, and maintained in the maintenance medium (supplemented) with bFGF and EGF. The neuronal differentiation was induced by treating different concentrations of A3051. Cell morphologies were captured at 24 hours after treatment of the indirubin analog 3051 using a bright-field optical microscope.

[5] = test system: β-catenin in H4/SWE cells; assay: Immunocytochemical analysis of β-catenin in H4/SWE cells; type: cell-based; settings: FIG. 9B
Description: Immunocytochemical analysis. H4 or H4/SWE cells treated with each compound were washed with PBS and fixed in 4% (wt/vol) paraformaldehyde (PFA) in PBS for 15 min at room temperature. The cells were then washed with PBS and permeabilized with 0.1% (vol/vol) Triton X-100 in PBS for 15 min. After washing with PBS, the cells were incubated with 10% bovine serum albumin (BSA) in PBS for 30 min and then with antibodies specific for β-catenin (1:100; BD) overnight at 4° C. The cells were washed in PBS and incubated with Alexa Fluor 488—conjugated IgG secondary antibody (1:400; Molecular Probes) at room temperature for 1 h. Cell nuclei were counterstained with DAPI for 10 min and the stained samples were examined under a LSM510 META microscope.

serum active GLP-1 [6] = assay: Serum active GLP-1 ELISA in HFD-mice; type: in vivo; settings: compared with mice fed on NCD, FIG. 4A
Description: as §1
(§2) Animals. The generation of Cxxc5^−/− mice has been described previously. Cxxc5 heterozygous mice were intercrossed for four generations to obtain littermate wild-type and Cxxc5^−/− mice and were maintained on a C57BL/6 background. Six-week-old Cxxc5^+/+ and Cxxc5^−/− mice were fed HFD for 8 weeks. Wild-type male C57BL/6 mice (KOATECH, Seoul, Korea) were fed HFD consisting of 60% calories from fat (Research Diet, D12492) for 8 weeks. To validate that the insulin resistance mouse model was successfully established, fasting glucose levels were assessed with a One Touch Ultra glucometer (LifeScan). Subsequently, each HFD-fed mouse with a fasting glucose level higher than 16.7 mmol/L was orally administered A3334 (25 mg kg^−1), sitagliptin (50 mg kg^−1), or metformin (100 mg kg^−1) each day for 5 days at weeks 8 and 12. After the removal of the drugs, mice were maintained for 3 weeks on the HFD. To monitor pancreas regeneration, six-week-old Cxxc5^+/+ and Cxxc5^−/− mice were fed an HFD as above. […]

serum active GLP-1 [7] = assay: Serum active GLP-1 ELISA in HFD-fed, STZ-induced diabetes mice; type: in vivo
Description: as §1, §2

[8] = test system: GLP-1 and other Wnt/β-catenin signaling target genes (Tcf712, Axin2, Dvl1, Wisp1, Fosl1); assay: qPCR of GLP-1 and other Wnt/β-catenin signaling target genes in epiWAT of HFD-mice; type: in vivo; settings: phenotypes as observed in HFD-fed Cxxc5−/− mice, FIG. 2C
Description: Quantitative real-time polymerase chain reaction (PCR). Total RNA was extracted from ground tissue powder using TRIzol reagent (Invitrogen) according to the manufacturer's instructions. Reverse transcription was performed with M-MLV reverse transcriptase (Invitrogen) using 2 μg of total RNA. Synthesized cDNA was diluted to a concentration of 100 ng/μl. Quantitative PCR analyses were performed in the Rotor-gene Q real-time PCR cycler (Qiagen) using SYBR green reagent (Qiagen) with conditions of 95° C. for 10 min followed by 40 cycles at 95° C. for 5 s and 60° C. for 15 s. Relative quantification of mRNA levels was estimated using the comparative Ct method (ΔΔCt). Glp-1 mRNA values were normalized with respect to GAPDH.
Animals. The generation of Cxxc5^−/− mice has been described previously. Cxxc5 heterozygous mice were intercrossed for four generations to obtain littermate wild-type and Cxxc5^−/− mice and were maintained on a C57BL/6 background. Six-week-old Cxxc5^+/+ and Cxxc5^−/− mice were fed HFD for 8 weeks. Wild-type male C57BL/6 mice (KOATECH, Seoul, Korea) were fed HFD consisting of 60% calories from fat (Research Diet, D12492) for 8 weeks. To validate that the insulin resistance mouse model was successfully established, fasting glucose levels were assessed with a One Touch Ultra glucometer (LifeScan). […]

COc1ccc(C2CC(C(F)(F)F)n3ncc(C(=O)O)c3N2)cc1OC (stereo not shown) [Compound 2]
CXXC5-DVL inhibitory activity (%) (CXXC5-DVL interaction): 90.63%

Cc1cc(C)c2c(O)nc(SCC(=O)c3ccc(O)c(O)c3)nc2n1 [Compound 3]
CXXC5-DVL inhibitory activity (%) (CXXC5-DVL interaction): 88.19%

COC(=O)C1=C(C)N/C(=C/c2cc(C)n(-c3ccccc3F)c2C)C1=O [Compound 4]
CXXC5-DVL inhibitory activity (%) (CXXC5-DVL interaction): 87.58%

O=C(O)C1Sc2[nH]c(=O)sc2C2c3cc(Br)cc(Br)c3OC(=O)C12 (stereo not shown) [Compound 5]
CXXC5-DVL inhibitory activity (%) (CXXC5-DVL interaction): 90.48%

CCN(CC)S(=O)(=O)c1ccc(OC)c(Nc2cc(-c3ccccc3)nc(C)n2)c1 [Compound 6]
CXXC5-DVL inhibitory activity (%) (CXXC5-DVL interaction): 58.24%

COc1ccc(C2CC(=O)C3=C(C2)Nc2onc(C)c2C3c2ccc(O)c(O)c2)cc1OC (stereo not shown) [Compound 7]
CXXC5-DVL inhibitory activity (%) (CXXC5-DVL interaction): 90.87%

O=C1Nc2cc(Br)ccc2/C1=C1/Nc2ccccc2/C1=N\O [Compound 8, 6-Bromoindirubin-3′-oxime, reference compound]
activation of Wnt/β-catenin pathway (reporter assay) (Wnt/β-catenin pathway): showed effectiveness
level of β-catenin (western blot) [1]: restored
p-GSK3β (S9) (western blot) [1]: increased

Br.CN1CCc2cc(O)cc3c2[C@H]1Cc1ccc(O)c(O)c1-3 [Compound 9]
CXXC5-DVL inhibitory activity (%) (CXXC5-DVL interaction): 89.41%

NC(Cc1cc(O)c(O)cc1O)C(=O)O (stereo not shown) [Compound 10]
CXXC5-DVL inhibitory activity (%) (CXXC5-DVL interaction): 90.32%

O=c1cc(O)cc(/C=C/c2ccc(O)c(O)c2)o1 [Compound 11]
CXXC5-DVL inhibitory activity (%) (CXXC5-DVL interaction): 90.05%

O=C1Nc2ccccc2/C1=C1/Nc2ccccc2/C1=N\O [Compound 12, Indirubin-3′-oxime, reference compound]
activation of Wnt/β-catenin pathway (reporter assay) (Wnt/β-catenin pathway): showed effectiveness
level of β-catenin (western blot) [1]: restored
p-GSK3β (S9) (western blot) [1]: increased
CXXC5-DVL inhibitory activity (%) (CXXC5-DVL interaction): 89%

O=c1c(O)c(-c2cc(O)c(O)c(O)c2)oc2cc(O)cc(O)c12 [Compound 13]
CXXC5-DVL inhibitory activity (%) (CXXC5-DVL interaction): 85.22%

CC(N)(Cc1ccc(O)c(O)c1)C(=O)O (stereo not shown) [Compound 14]
CXXC5-DVL inhibitory activity (%) (CXXC5-DVL interaction): 85.22%

O=c1c(O)c(-c2ccc(O)cc2O)oc2cc(O)cc(O)c12 [Compound 15]
CXXC5-DVL inhibitory activity (%) (CXXC5-DVL interaction): 85.41%

CN(C)c1ccc(O)c2c1C[C@H]1C[C@H]3[C@H](N(C)C)C(O)=C(C(N)=O)C(=O)[C@@]3(O)C(O)=C1C2=O.Cl [Compound 16]
CXXC5-DVL inhibitory activity (%) (CXXC5-DVL interaction): 87.9%

Oc1cc(O)cc(/C=C/c2ccc(O)c(O)c2)c1 [Compound 17]
CXXC5-DVL inhibitory activity (%) (CXXC5-DVL interaction): 85.25%

Cl.O=C(OCCN1CCOCC1)C1(c2ccccc2)CCCCC1 [Compound 18]
CXXC5-DVL inhibitory activity (%) (CXXC5-DVL interaction): 86.81%

CO/N=C1/C(=C2/C(=O)Nc3cc(Cl)c(Cl)cc32)Nc2ccccc21 [Compound A3051, 5,6-dichloroindirubin-3′-methoxime]
level of CXXC5 (western blot) [1]: decreased
level of β-catenin (western blot) [1]: restored
p-GSK3β (S9) (western blot) [1]: increased
active GLP-1 expression in blood serum (serum active GLP-1 [2]): significantly rescued (increased)
secretion of Aβ-42 [3]: inhibited
neural differentiation of NSCs (cell morphology) [4]: induced neural differentiation
nuclear translocation of β-catenin [5]: increased

COc1ccc2c(c1)/C(=C1/Nc3ccccc3/C1=N\O)C(=O)N2 [Compound A3334, 5-Methoxyindirubin-3′-oxime]
level of CXXC5 (western blot) [1]: decreased
level of β-catenin (western blot) [1]: restored
p-GSK3β (S9) (western blot) [1]: increased
serum active GLP-1 levels (serum active GLP-1 [6]): restored
active GLP-1 expression in blood serum (serum active GLP-1 [2]): significantly rescued (increased)
secretion of Aβ-42 [3]: inhibited
nuclear translocation of β-catenin [5]: increased
serum active GLP-1 levels (serum active GLP-1 [7]; STZ-induced diabetic HFD-mice, compared with mice fed on NCD, FIG. 4B): restored
active GLP-1 expression in blood serum compared to the sitagliptin treatment (serum active GLP-1 [7]; compared to the effect of sitagliptin (positive control)): significantly rescued (increased)
relative expression levels of GLP-1 and other Wnt/β-catenin signaling target genes in epiWAT [8]: restored the phenotypes

O=C1Nc2ccccc2/C1=C1/Nc2ccccc2C1=O [Indirubin, reference compound]
level of β-catenin (western blot) [1]: restored
p-GSK3β (S9) (western blot) [1]: increased

Cc1cc(F)c(C(=O)Nc2cccc(-c3nncn3C(C)C)n2)cc1-n1cnc(C2CC2)c1 [selonsertib, reference compound]
active GLP-1 expression in blood serum (serum active GLP-1 [2]): did not have any effect

N[C@@H](CC(=O)N1CCn2c(nnc2C(F)(F)F)C1)Cc1cc(F)c(F)cc1F [sitagliptin, reference compound]
relative expression levels of GLP-1 and other Wnt/β-catenin signaling target genes in epiWAT [8]: did not
